{"source": "patent US6908899B2", "about": "“Pro-inflammatory fibrinopeptide” (U.S. Dept. of Veterans Affairs, priority 2001, dated 2005)", "key": {"[1]": {"tested_on": "foreskin fibroblast cells", "test": "In vitro T cell adhesion assay", "format": "cell-based, human", "details": "Foreskin line, ± SD, triplicate wells"}, "RA synovial cell lines": {"tested_on": "RA synovial cell lines", "test": "Flow cytometry analysis of ICAM-1 expression", "format": "cell-based, human"}, "[2]": {"details": "RA line 4, fibrin clot 0.6 mg/ml or GPRP 1 mg/ml"}, "[3]": {"details": "RA line 9, fibrin clot 0.6 mg/ml or GPRP 1 mg/ml"}}, "data": [{"substance": "Gly-Pro-Arg-Pro [GPRP]", "values": [{"measurement": "Adherent T cell numbers", "setting": "[1]; GPRP 0.1 mg/ml overnight", "result": "51 ± 3"}, {"measurement": "Adherent T cell numbers", "setting": "[1]; GPRP 1 mg/ml overnight", "result": "54 ± 11"}, {"measurement": "ICAM-1 % positive", "setting": "RA synovial cell lines; [2]", "result": 87.0, "unit": "%"}, {"measurement": "ICAM-1 MFC", "setting": "RA synovial cell lines; [2]", "result": 2.73}, {"measurement": "ICAM-1 % positive", "setting": "RA synovial cell lines; RA line 5, GPRP 1 mg/ml", "result": 74.5, "unit": "%"}, {"measurement": "ICAM-1 MFC", "setting": "RA synovial cell lines; RA line 5, GPRP 1 mg/ml", "result": 2.00}, {"measurement": "ICAM-1 % positive", "setting": "RA synovial cell lines; RA line 6, GPRP 1 mg/ml", "result": 95.0, "unit": "%"}, {"measurement": "ICAM-1 MFC", "setting": "RA synovial cell lines; RA line 6, GPRP 1 mg/ml", "result": 9.19}, {"measurement": "ICAM-1 % positive", "setting": "RA synovial cell lines; [3]", "result": 80.1, "unit": "%"}, {"measurement": "ICAM-1 MFC", "setting": "RA synovial cell lines; [3]", "result": 3.62}]}]}
